From patent US9078890B2, “Use of koumine and its homologues in preparation of medicament for treatment of autoimmune diseases of involved bones and joints” (priority 2011, dated 2015)
Marks after values point to notes of the source that are not given here.

Tests used:
[1] = tested on: type II collagen-induced arthritis rat; assay: Type II collagen-induced arthritis rat: mechanical hyperalgesia (Von-frey mechanical pain threshold); type: in vivo, Wistar rat; details: koumine 0.6, 3, 15 mg/kg intragastric; dose-effect relationship
Protocol: (§1) Under aseptic conditions, 10 mg chicken type II collagen protein was fully mixed with 5 ml 10 mM glacial acetic acid solution, and stirred overnight in refrigerator at 4° C. to fully dissolve it. It was mixed with complete Freund's adjuvant in equal volume in ice bath to fully emulsify into an emulsion with a collagen concentration of 1 mg/ml.
Wistar rats are divided into a modeling group and a false modeling group. After the modeling group rats were narcotized with intraperitoneal injection of pentobarbital, the above emulsion was injected intracutaneously at 3 to 4 positions at back, tail root or the like, 0.3 ml for each, an primary immunity was carried out. After 7 days, a secondary immunity was carried out, the emulsifying agent complete Freund's adjuvant of initial immunity was replaced with incomplete Freund's adjuvant, 0.1 ml the emulsion was injected under sevoflurane inhalation anesthesia wherein the injection position is different from the last time. […]
(§2) 1 hour after intragastric administration, the thermal withdrawal latency of each group was determined by the photo-thermal dolorimeter; the mechanical pain threshold of rats of each group was determined by Von-frey electromechanical pain threshold detector, thus the condition of thermal hyperalgesia and mechanical hyperalgesia of rats of each group was observed.

[2] = in vivo; details: mouse, sc
[3] = tested on: type II collagen-induced arthritis rat; assay: Type II collagen-induced arthritis rat: condition and body weight; type: in vivo, Wistar rat; details: for Body weight before intervention: from Day 21 after modeling for 10 days
Protocol: as §1
(§3) Wistar rats are divided into a modeling group and a false modeling group. After the modeling group rats were narcotized with intraperitoneal injection of pentobarbital, the above emulsion was injected intracutaneously at 3 to 4 positions at back, tail root or the like, 0.3 ml for each, an primary immunity was carried out. After 7 days, a secondary immunity was carried out, the emulsifying agent complete Freund's adjuvant of initial immunity was replaced with incomplete Freund's adjuvant, 0.1 ml the emulsion was injected under sevoflurane inhalation anesthesia wherein the injection position is different from the last time. In false modeling group, the emulsion was replaced with solvent glacial acetic acid solution.
(§4) Successfully modeled rat in the modeling group were randomly divide into 5 groups: low, middle, high-dose koumine treatment group, positive control group, negative control group, 10 rats for each group. Beginning from Day 21 after modeling, corresponding intervention was carried out as following in 10 days continuously: 0.6, 3, 15 mg/kg koumine were intragastrically administrated to the low, middle, high-dose koumine treatment group respectively, 1 time every day; 1 mg/kg amethopterin was administrated to the positive control group, 1 time every 3 days, equal volume of physiological saline was administrated for the remained days; equal volume of physiological saline was administrated to the negative control group.

[4] = tested on: serum type II collagen antibody; assay: Type II collagen-induced arthritis rat: serum type II collagen antibody (ELISA); type: in vivo, Wistar rat; details: koumine 0.6, 3, 15 mg/kg intragastric once daily 10 days; after intervention finished; dose dependent
Protocol: as §1, §3
Successfully modeled rat in the modeling group were randomly divide into 5 groups: low, middle, high-dose koumine treatment group, positive control group, negative control group, 10 rats for each group. […]

[5] = tested on: type II collagen-induced arthritis rat; assay: Type II collagen-induced arthritis rat: thermal hyperalgesia (thermal withdrawal latency); type: in vivo, Wistar rat; details: for Thermal stimulus withdrawal latency, Intervention Day 2: intervention Day 2, 1 hour after administration; for Thermal stimulus withdrawal latency, Intervention Day 4: intervention Day 4, 1 hour after administration; for Thermal stimulus withdrawal latency, Intervention Day 6: intervention Day 6, 1 hour after administration; for Thermal stimulus withdrawal latency, Intervention Day 8: intervention Day 8, 1 hour after administration; for Thermal stimulus withdrawal latency, Intervention Day 10: intervention Day 10, 1 hour after administration
Protocol: as §1, §3, §4, §2

[6] = tested on: adjuvant arthritis mice; assay: Adjuvant arthritis mice: condition and body weight; type: in vivo, Kunming mice
Protocol: BCG was inactivated in water bath at 80° C., and fully emulsified along with complete Freund's adjuvant to form complete Freund's adjuvant emulsion containing 5 mg/ml BCG, preserved at 4° C., and shake well before use. The Kunming mice were divided into a modeling group and a false modeling group. According to the method recited in the literature [Rasool M, Sabina E P, Lavanya B. Anti-inflammatory effect of Spirulina fusiformis on adjuvant-induced arthritis in mice. Biol Pharm Bull. 2006, 29(12):2483-7], for the modeling group, the model was prepared by intradermal injection of 20 ul the emulsion under the plantar surface of right paws after the mice was narcotized; for the false modeling group, the emulsion was replaced with physiological saline. For the modeling group, the animals were screened on Day 8 after injection: the mice with the injected paw thickness increased >0.5 mm and thermal hyperalgesia occurred (paw thermal withdrawal latency <8 second) were selected as experimental subjects. The selected mice were divided into 5 groups randomly: low, middle, high dose treatment group (0.8, 4, 20 mg/kg); indomethacin positive control group (10 mg/kg); negative control group (physiological saline), each comprising 12 animals. […]

[7] = koumine 0.6 mg/kg intragastric once daily from Day 21
[8] = koumine 0.6 mg/kg intragastric once daily
[9] = koumine 3 mg/kg intragastric once daily from Day 21
[10] = koumine 3 mg/kg intragastric once daily
[11] = koumine 15 mg/kg intragastric once daily from Day 21
[12] = koumine 15 mg/kg intragastric once daily

SMILES: C=CC12CN(C)C3CC14C(=Nc1ccccc14)C1CC2C3CO1 (centres unmarked) [Koumine]
- Effect on mechanical pain threshold (summary of Table 4) [1]: improve mechanical pain threshold
- LD50 [2]: 99 mg/kg
- Body weight after intervention, Day 7 [3, 7]: 154.6 ± 7.20 g
- Body weight after intervention, Day 14 [3, 7]: 173.1 ± 7.93 g
- Body weight after intervention, Day 21 [3, 7]: 194.1 ± 16.67 g
- Body weight after intervention, Day 31 [3, 7]: 235.8 ± 5.00 g
- Body weight before intervention [3, 8]: 129.9 ± 8.60 g
- Body weight after intervention, Day 7 [3, 9]: 145.1 ± 9.24 g
- Body weight after intervention, Day 14 [3, 9]: 173.7 ± 4.84 g
- Body weight after intervention, Day 21 [3, 9]: 202.3 ± 9.57 g
- Body weight after intervention, Day 31 [3, 9]: 240.2 ± 6.85 g
- Body weight before intervention [3, 10]: 126.5 ± 7.92 g
- Body weight after intervention, Day 7 [3, 11]: 148.7 ± 8.73 g
- Body weight after intervention, Day 14 [3, 11]: 176.9 ± 3.86 g
- Body weight after intervention, Day 21 [3, 11]: 205.1 ± 6.94 g
- Body weight after intervention, Day 31 [3, 11]: 260.3 ± 11.79 g
- Body weight before intervention [3, 12]: 127.8 ± 7.45 g
- Condition of rats (food intake, activity, fur, emaciation) ([3]; koumine 0.6, 3, 15 mg/kg intragastric once daily): can be improved in a dose dependent manner
- Effect on body weight of type II collagen-induced arthritis rats (summary of Table 2) ([3]; koumine 0.6, 3, 15 mg/kg intragastric, robustness-promoting effect on high-dose group): antagonistic effect on body weight reducing
- Effect on serum type II collagen antibody level (FIG. 5) [4]: significantly antagonistic effect on type II collagen antibody level increase
- Thermal stimulus withdrawal latency, Before intervention [5, 8]: 7.50 ± 1.34 s
- Thermal stimulus withdrawal latency, Intervention Day 2 [5, 8]: 7.81 ± 1.39 s
- Thermal stimulus withdrawal latency, Intervention Day 4 [5, 8]: 8.42 ± 1.24 s
- Thermal stimulus withdrawal latency, Intervention Day 6 [5, 8]: 10.30 ± 0.73**^★ second
- Thermal stimulus withdrawal latency, Intervention Day 8 [5, 8]: 8.96 ± 0.81 s
- Thermal stimulus withdrawal latency, Intervention Day 10 [5, 8]: 8.62 ± 2.21 s
- Thermal stimulus withdrawal latency, Before intervention [5, 10]: 8.03 ± 1.98 s
- Thermal stimulus withdrawal latency, Intervention Day 2 [5, 10]: 8.07 ± 1.86 s
- Thermal stimulus withdrawal latency, Intervention Day 4 [5, 10]: 9.16 ± 1.18 s
- Thermal stimulus withdrawal latency, Intervention Day 6 [5, 10]: 11.18 ± 2.03**^★ second
- Thermal stimulus withdrawal latency, Intervention Day 8 [5, 10]: 10.40 ± 1.74 s
- Thermal stimulus withdrawal latency, Intervention Day 10 [5, 10]: 11.62 ± 1.21**^★ second
- Thermal stimulus withdrawal latency, Before intervention [5, 12]: 7.68 ± 2.48 s
- Thermal stimulus withdrawal latency, Intervention Day 2 [5, 12]: 9.41 ± 0.68 s
- Thermal stimulus withdrawal latency, Intervention Day 4 [5, 12]: 10.82 ± 1.07 s
- Thermal stimulus withdrawal latency, Intervention Day 6 [5, 12]: 12.98 ± 1.13**^★ second
- Thermal stimulus withdrawal latency, Intervention Day 8 [5, 12]: 13.44 ± 1.72 s
- Thermal stimulus withdrawal latency, Intervention Day 10 [5, 12]: 13.87 ± 1.26**^★ second
- Effect on thermal stimulus withdrawal latency (summary of Table 3) ([5]; koumine 0.6, 3, 15 mg/kg intragastric, dose-effect relationship): can significantly extend the thermal stimulus withdrawal latency
- Effect on body weight of adjuvant arthritis mice (FIG. 1) ([6]; koumine 0.8, 4, 20 mg/kg intragastric once daily, Day 4-18 after inflammation): dose dependent antagonistic effect on body weight reducing
- Food intake and activity after inflammation ([6]; koumine treatment group 0.8, 4, 20 mg/kg intragastric, negative control decreased obviously): no obvious change was observed
